Assay results from patent US5210193A, “Piperazine derivatives” (American Cyanamid Company, priority 1990, dated 1993).
Values after ≈ are worked out from the molar mass of the structure shown.

Columns and labels:
Assay in all cases: in vitro antibacterial MIC, agar plate dilution
Type in all cases: cell-based
[1] = test system: Staphylococcus epidermidis IO 83-58; settings: IO8358, 18 hours, 35° C., read-out: MIC
Summary of the method: (§1)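 Read-out is visible growth inhibition on Mueller-Hinton agar dilution plates incubated 18 hours at 35° C after inoculation of ~10^4 CFU (Steers device), with MIC reported in mcg/ml.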

[2] = test system: Enterobacter aerogenes VGH 84-36; settings: Klebsiella aerogenes, VGH8436, 18 hours, 35° C., read-out: MIC
Summary of the method: as §1

[3] = test system: Klebsiella pneumoniae MOR 84-4; settings: Klebsiella pneumoniae, MOR844, 18 h, 35° C., read-out: MIC
Summary of the method: as §1

[4] = test system: Staphylococcus Spp saprophiticus VGH 84-50; settings: 18 hours, 35° C., read-out: MIC
Summary of the method: as §1

[5] = test system: Staphylococcus aureus Smith; settings: Staphylococcus aureus, 18 h, 35° C., read-out: MIC
Summary of the method: as §1

[6] = test system: Staphylococcus epidermidis CMC 83-135; settings: CMC83135, 18 hours, 35° C., read-out: MIC
Summary of the method: as §1

[7] = test system: Escherichia coli ATCC 25922; settings: Escherichia coli, ATCC25922, 18 h, 35° C., read-out: MIC
Summary of the method: as §1

[8] = test system: Serratia marcescens F 0-35; settings: Serratia marcescens, F035, 18 h, 35° C., read-out: MIC
Summary of the method: as §1

[9] = test system: Escherichia coli PRNT 311; settings: PRNT311, 18 hours, 35° C., read-out: MIC
Summary of the method: as §1

[10] = test system: Streptococcus faecalis ATTC 29212; settings: Enterococcus faecalis, ATTC29212, 18 hours, 35° C., read-out: MIC
Summary of the method: as §1

[11] = test system: Escherichia coli CMC 84-16; settings: Escherichia coli, CMC8416, 18 h, 35° C., read-out: MIC
Summary of the method: as §1

[12] = test system: Enterobacter cloacae VGH 84-37; settings: Enterobacter cloacae, VGH8437, 18 h, 35° C., read-out: MIC
Summary of the method: as §1

[13] = test system: Serratia marcescens K 84-18; settings: Serratia marcescens, K8418, 18 h, 35° C., read-out: MIC
Summary of the method: as §1

Klebsiella pneumoniae AD = settings: Klebsiella pneumoniae, 18 h, 35° C., read-out: MIC
Summary of the method: as §1

[14] = test system: Staphylococcus epidermidis VGH 84-40; settings: VGH8440, 18 hours, 35° C., read-out: MIC
Summary of the method: as §1

[15] = test system: Staphylococcus aureus CMC 83-127; settings: Staphylococcus aureus, CMC83127, 18 h, 35° C., read-out: MIC
Summary of the method: as §1

[16] = test system: Morganella morganii VGH 84-11; settings: VGH8411, 18 hours, 35° C., read-out: MIC
Summary of the method: as §1

[17] = test system: Enterobacter cloacae K 84-10; settings: Enterobacter cloacae, K8410, 18 h, 35° C., read-out: MIC
Summary of the method: as §1

[18] = test system: Staphylococcus aureus VGH 84-45; settings: Staphylococcus aureus, VGH8445, 18 h, 35° C., read-out: MIC
Summary of the method: as §1

[19] = test system: Pseudomonas aeruginosa VGH 84-4; settings: Pseudomonas aeruginosa, VGH844, 18 h, 35° C., read-out: MIC
Summary of the method: as §1

[20] = test system: Pseudomonas aeruginosa LL-1244; settings: Pseudomonas aeruginosa, LL1244, 18 h, 35° C., read-out: MIC
Summary of the method: as §1

[21] = test system: Klebsiella oxytoca MOR 84-28; settings: MOR8428, 18 hours, 35° C.
Summary of the method: as §1

[22] = test system: Staphylococcus aureus ATCC 25913; settings: ATCC25913, 18 hours, 35° C.
Summary of the method: as §1

[23] = test system: Morganella morganii CMC 84-37; settings: Morganella morganii, CMC8437, 18 h, 35° C., read-out: MIC
Summary of the method: as §1

[24] = test system: Staphylococcus aureus ATTC 29213; settings: Staphylococcus aureus, ATTC29213, 18 h, 35° C., read-out: MIC
Summary of the method: as §1

Escherichia coli NAR 311 = settings: NAR311, 18 hours, 35° C., read-out: MIC
Summary of the method: as §1

[25] = test system: Streptococcus faecalis VGH 84-65; settings: Enterococcus faecalis, VGH8465, 18 h, 35° C., read-out: MIC
Summary of the method: as §1

[26] = test system: Staphylococcus aureus VGH 84-46; settings: Staphylococcus aureus, VGH8446, 18 h, 35° C., read-out: MIC
Summary of the method: as §1

[27] = test system: Staphylococcus aureus CMC 83-128; settings: CMC83128, 18 hours, 35° C., read-out: MIC
Summary of the method: as §1

[28] = test system: Escherichia coli CMC 84-11; settings: Escherichia coli, CMC8411, 18 h, 35° C., read-out: MIC
Summary of the method: as §1

[29] = test system: Acinetobacter calcoaceticus MOR 84-43; settings: MOR8443, 18 hours, 35° C., read-out: MIC
Summary of the method: as §1

[30] = test system: Proteus rettgeri CMC 84-41; settings: Providencia rettgeri, CMC8441, 18 h, 35° C., read-out: MIC
Summary of the method: as §1

| SMILES | MIC [1] [mg/L] | MIC [2] [mg/L] | MIC [3] [mg/L] | MIC [4] [mg/L] | MIC [5] [mg/L] | MIC [6] [mg/L] | MIC [7] [mg/L] | MIC [8] [mg/L] | MIC [9] [mg/L] | MIC [10] [mg/L] | MIC [11] [mg/L] | MIC [12] [mg/L] | MIC [13] [mg/L] | MIC (Klebsiella pneumoniae AD) [mg/L] | MIC [14] [mg/L] | MIC [15] [mg/L] | MIC [16] [mg/L] | MIC [17] [mg/L] | MIC [18] [mg/L] | MIC [19] [mg/L] | further results |
| --- | --- | --- | --- | --- | --- | --- | --- | --- | --- | --- | --- | --- | --- | --- | --- | --- | --- | --- | --- | --- | --- |
| CCn1cc(C(=O)O)c(=O)c2cc(F)c(N3CCNC(c4ccco4)C3)cc21 (stereo not drawn) [Example 28, 1-Ethyl-6-fluoro-7-[3-(2-furanyl)-1-piperazinyl]-1,4-dihydro-4-oxo-3-quinolinecarboxylic acid] | 0.25 (≈ 0.649 µM) | 0.5 (≈ 1.3 µM) | 0.25 (≈ 0.649 µM) | 1 (≈ 2.59 µM) | ≤ 0.12 | ≤ 0.12 | ≤ 0.12 | 1 (≈ 2.59 µM) | 0.5 (≈ 1.3 µM) | 2 (≈ 5.19 µM) | ≤ 0.12 | ≤ 0.12 | 1 (≈ 2.59 µM) | ≤ 0.12 | ≤ 0.12 | ≤ 0.06 | 0.25 (≈ 0.649 µM) | 0.25 (≈ 0.649 µM) | ≤ 0.06 | 4 (≈ 10.4 µM) | MIC [20]: 32 mg/L (≈ 83 µM); MIC [21]: 0.5 mg/L (≈ 1.3 µM); MIC [22]: ≤ 0.12 mg/L; MIC [23]: 0.25 mg/L (≈ 0.649 µM); MIC [24]: 0.25 mg/L (≈ 0.649 µM); MIC (Escherichia coli NAR 311): 4 mg/L (≈ 10.4 µM); MIC [25]: 2 mg/L (≈ 5.19 µM); MIC [26]: ≤ 0.12 mg/L; MIC [27]: ≤ 0.12 mg/L; MIC [28]: ≤ 0.12 mg/L; MIC [29]: 2 mg/L (≈ 5.19 µM); MIC [30]: 0.25 mg/L (≈ 0.649 µM) |
| CCn1cc(C(=O)O)c(=O)c2cc(F)c(N3CCNC(c4ccsc4)C3)cc21 (stereo not drawn) [Example 30] | 0.5 (≈ 1.25 µM) | 0.5 (≈ 1.25 µM) | 0.25 (≈ 0.623 µM) | 2 (≈ 4.98 µM) | 0.12 (≈ 0.299 µM) | 0.25 (≈ 0.623 µM) | 0.12 (≈ 0.299 µM) | 1 (≈ 2.49 µM) | 0.5 (≈ 1.25 µM) | 4 (≈ 9.96 µM) | 0.25 (≈ 0.623 µM) | 0.12 (≈ 0.299 µM) | 0.5 (≈ 1.25 µM) | 0.12 (≈ 0.299 µM) | 0.25 (≈ 0.623 µM) | 0.12 (≈ 0.299 µM) | 0.12 (≈ 0.299 µM) | 0.5 (≈ 1.25 µM) | 0.25 (≈ 0.623 µM) | 4 (≈ 9.96 µM) | MIC [20]: 32 mg/L (≈ 79.7 µM); MIC [21]: 0.5 mg/L (≈ 1.25 µM); MIC [22]: 0.25 mg/L (≈ 0.623 µM); MIC [23]: 0.25 mg/L (≈ 0.623 µM); MIC [24]: 0.5 mg/L (≈ 1.25 µM); MIC (Escherichia coli NAR 311): 4 mg/L (≈ 9.96 µM); MIC [25]: 4 mg/L (≈ 9.96 µM); MIC [26]: 0.25 mg/L (≈ 0.623 µM); MIC [27]: 0.5 mg/L (≈ 1.25 µM); MIC [28]: 0.12 mg/L (≈ 0.299 µM); MIC [29]: 4 mg/L (≈ 9.96 µM); MIC [30]: 0.25 mg/L (≈ 0.623 µM) |
| CCn1cc(C(=O)O)c(=O)c2cc(F)c(N3CCN(C)C(c4cc5cc(Cl)ccc5o4)C3)cc21 (stereo not drawn) [Example 55, 7-[3-(5-Chloro-2-benzofuranyl)-4-methyl-1-piperazinyl]-1-ethyl-6-fluoro-1,4-dihydro-4-oxo-3-quinolinecarboxylic acid] | 128 (≈ 265 µM) | > 256 | > 256 | > 256 | 16 (≈ 33.1 µM) | 64 (≈ 132 µM) | > 256 | > 256 | > 256 | > 256 | > 256 | > 256 | > 256 | > 256 | 32 (≈ 66.1 µM) | 8 (≈ 16.5 µM) | > 256 | > 256 | 16 (≈ 33.1 µM) | > 256 | MIC [20]: > 256 mg/L; MIC [21]: > 256 mg/L; MIC [23]: > 256 mg/L; MIC [24]: 64 mg/L (≈ 132 µM); MIC (Escherichia coli NAR 311): > 256 mg/L; MIC [25]: > 256 mg/L; MIC [26]: 32 mg/L (≈ 66.1 µM); MIC [27]: 16 mg/L (≈ 33.1 µM); MIC [28]: > 256 mg/L; MIC [29]: > 256 mg/L; MIC [30]: > 256 mg/L |
| CCn1cc(C(=O)O)c(=O)c2c(F)c(F)c(N3CCN(C)CC3)c(F)c21 [Example 85, 1-Ethyl-5,6,8-trifluoro-1,4-dihydro-7-(4-methyl-1-piperazinyl) -4-oxo-3-quinolinecarboxylic acid] | 1 (≈ 2.71 µM) | 0.5 (≈ 1.35 µM) | 0.5 (≈ 1.35 µM) | 8 (≈ 21.7 µM) | 1 (≈ 2.71 µM) | 2 (≈ 5.42 µM) | 0.12 (≈ 0.325 µM) | 0.5 (≈ 1.35 µM) | 0.12 (≈ 0.325 µM) | 8 (≈ 21.7 µM) | 0.06 (≈ 0.162 µM) | 0.12 (≈ 0.325 µM) | 0.5 (≈ 1.35 µM) | 0.25 (≈ 0.677 µM) | 1 (≈ 2.71 µM) | 0.5 (≈ 1.35 µM) | 0.12 (≈ 0.325 µM) | 0.12 (≈ 0.325 µM) | 1 (≈ 2.71 µM) | 4 (≈ 10.8 µM) | MIC [20]: 16 mg/L (≈ 43.3 µM); MIC [21]: 1 mg/L (≈ 2.71 µM); MIC [23]: 0.12 mg/L (≈ 0.325 µM); MIC [24]: 2 mg/L (≈ 5.42 µM); MIC (Escherichia coli NAR 311): 4 mg/L (≈ 10.8 µM); MIC [25]: 16 mg/L (≈ 43.3 µM); MIC [26]: 1 mg/L (≈ 2.71 µM); MIC [27]: 2 mg/L (≈ 5.42 µM); MIC [28]: 0.12 mg/L (≈ 0.325 µM); MIC [29]: 1 mg/L (≈ 2.71 µM); MIC [30]: 0.5 mg/L (≈ 1.35 µM) |
